Tests used:
[1] = target: 5-hydroxytryptamine receptor 2B (Homo sapiens, UniProt P41595)
[2] = target: T1, 5-hydroxytryptamine receptor 2C (Homo sapiens, UniProt P28335)
T1 sequence (P28335 whole entry): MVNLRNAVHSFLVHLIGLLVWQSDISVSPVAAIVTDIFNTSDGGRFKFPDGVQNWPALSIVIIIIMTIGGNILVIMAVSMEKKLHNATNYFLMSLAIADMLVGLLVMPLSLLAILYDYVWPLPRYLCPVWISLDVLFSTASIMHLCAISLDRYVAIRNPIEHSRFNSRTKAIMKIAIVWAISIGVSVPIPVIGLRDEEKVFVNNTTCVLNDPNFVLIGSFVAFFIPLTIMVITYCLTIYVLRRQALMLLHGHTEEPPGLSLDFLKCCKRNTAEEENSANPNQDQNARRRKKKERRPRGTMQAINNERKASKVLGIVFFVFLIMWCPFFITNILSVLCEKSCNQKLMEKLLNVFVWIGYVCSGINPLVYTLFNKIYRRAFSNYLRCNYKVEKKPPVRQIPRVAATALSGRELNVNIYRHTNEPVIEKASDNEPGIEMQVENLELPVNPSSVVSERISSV

Sequence of 5-hydroxytryptamine receptor 2B (P41595 whole entry): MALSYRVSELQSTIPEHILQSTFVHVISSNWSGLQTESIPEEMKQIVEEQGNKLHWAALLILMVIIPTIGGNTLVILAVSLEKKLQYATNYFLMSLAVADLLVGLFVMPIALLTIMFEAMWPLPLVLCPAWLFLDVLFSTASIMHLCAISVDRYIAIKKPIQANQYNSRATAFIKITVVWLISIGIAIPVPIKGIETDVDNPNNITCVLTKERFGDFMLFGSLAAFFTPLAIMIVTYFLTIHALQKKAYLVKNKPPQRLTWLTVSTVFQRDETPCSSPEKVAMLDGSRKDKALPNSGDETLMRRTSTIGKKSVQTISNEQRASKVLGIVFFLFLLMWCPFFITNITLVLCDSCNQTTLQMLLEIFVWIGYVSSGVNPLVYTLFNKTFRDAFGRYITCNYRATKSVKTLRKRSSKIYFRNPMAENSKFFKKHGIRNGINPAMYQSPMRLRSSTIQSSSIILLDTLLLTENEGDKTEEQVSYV

CCCN(CCC)C1CCc2cccc(O)c2C1 (configuration not stated)
Ki [1]: 891 nM

Cc1[nH]c2ccc(O)cc2c1CCN
Ki [1]: 170 nM
Ki [2]: 1200 nM

NCCc1c[nH]c2ccccc12 [1H-indole-3-ethanamine]
Ki [1]: 29.5 nM
Ki [2]: 45.7 nM

COc1cc(CC(C)N)c(OC)cc1Br (stereo not drawn) [2-(4-Bromo-2,5-dimethoxy-phenyl)-1-methyl-ethylamine((-)-DOB)]
Ki [1]: 2.88 nM

FC(F)(F)c1ccc(N2CCNCC2)nc1Cl [2-Chloro-3-(trifluoromethyl)-6-(1-piperazinyl)pyridine]
Ki [1]: 525 nM
Ki [2]: 97.7 nM

c1ccc2nc(N3CCNCC3)ccc2c1 [2-Piperazin-1-yl-quinoline (Quipazine)]
Ki [1]: 178 nM
Ki [2]: 339 nM

Cn1cc(CCN)c2cc(O)ccc21 [5-HT,omega-N-Me]
Ki [1]: 2 nM
Ki [2]: 11.5 nM

Clc1cncc(N2CCNCC2)n1 [L-630,571]
Ki [1]: 295 nM
Ki [2]: 214 nM

CC(N)Cn1ccc2cc(F)c(Cl)cc21 (configuration not stated) [NSC_3045226]
Ki [1]: 0.89 nM
Ki [2]: 32.4 nM

CC(N)Cc1c[nH]c2ccc(OCc3cccs3)cc12 (configuration not stated) [NSC_5311036]
Ki [2]: 93.3 nM

C[C@H](N)Cc1cccc(C(F)(F)F)c1 [Norfenfluramine (+)]
Ki [1]: 8.71 nM
Ki [2]: 170 nM

COc1ccc2c(c1[C@@H]1CCNC1)CCC2 [ORG-37684]
Ki [1]: 11 nM
Ki [2]: 6.76 nM

CN1CCc2cc(Cl)c(O)cc2[C@@H](c2ccccc2)C1 [SCH 23390,R(+)]
Ki [1]: 70.8 nM
Ki [2]: 40.7 nM

FC(F)(F)c1cccc(N2CCNCC2)c1 [TFMPP]
Ki [1]: 288 nM

NCCc1c[nH]c2ccc(C(N)=O)cc12 [[3H]-5-carboxamidotryptamine]
Ki [1]: 15.5 nM

COc1cc(CC(C)N)c(OC)cc1I (configuration not stated) [[125I]2,5-dimethoxy-4-iodoamphetamine]
Ki [1]: 1.41 nM
Ki [2]: 7.94 nM
